Measured values published in patent US10473670B2 (University of Kentucky Research Foundation, priority 2016, dated 2019).
Entries after “also recorded” stand apart in the source; their conditions may differ.

Legend:
[1] = tested on: STC-1 cells; assay: NT release from STC-1 cells (NT EIA); format: cell-based, mouse; conditions: OA 0.25 mM, phorbol myristate acetate 100 nM
From the text: FIGS. 15A-B show graphs and images illustrating that FFAR1 and FFAR4 agonists increase AMPK activity. A. NT IF (left panel), NT EIA (middle panel, *p<0.05 vs. control) and western blotting (right panel) of STC-1 cells. B. Real-time PCR. GAPDH was used as the internal control (BON cell expression was arbitrarily set at 1). All data are mean+/−SD.
FFAR1 (previously known as GPR40) and FFAR4 (previously known as GPR120) are medium- to long-chain FFA G-protein-coupled receptors that have been implicated in the regulation of energy homeostasis and hormone secretion.

[2] = tested on: mTORC1 and ERK1/2 signaling; assay: Western blot of p-S6K1 and p-ERK1/2 in BON cells; format: cell-based, human; conditions: pretreatment with CC 10 μM, AICAR 1 mM 3 h
Method: FIGS. 16A-D show graphs and images illustrating Cross-talk of AMPK and mTORC1 signaling. A. Diagram of cross-talk of AMPK and mTORC1 signaling. B. Western blot analysis of BON cells treated with or without AICAR (left panel) or 1 mM AICAR and CC (10 μM) (right panel) for 3 h. C. NT EIA (upper panel) and western blotting (lower panel) on BON cells expressing control vector and myc-raptor S722A/S792A treated with AICAR (1 mM) for 3 h. D. NT EIA (upper panel) and western blotting (lower panel) on BON cells expressing control vector and NTC and TSC2 siRNA treated with AICAR (1 mM) for 3 h. *p<0.05 vs. control in vector, †p<0.05 vs. AICAR in vector (C); *p<0.05 vs. control in NTC siRNA, †p<0.05 vs. control in NTC siRNA, ‡ p<0.05 vs. AICAR in NTC siRNA (D). n=6. All data are mean+/−SD.
AMPK activation inhibits mTORC1 through raptor, a component of mTORC1, or TSC2, a negative regulator of mTORC1 signaling. […] Moreover, a stable BON overexpression cell line was generated with a mutant raptor vector in which both Ser722 and Ser792 (AMPK phosphorylation sites) are replaced by alanine. […] Together, these findings further indicate the interaction of AMPK, mTORC1 and ERK signaling in the regulation of NT secretion.

[3] = tested on: AMPK; assay: Western blot of p-AMPK in proximal intestinal mucosa after olive oil gavage; format: in vivo; conditions: mice after olive oil gavage, with or without SR 48692 pretreatment
Method: FIGS. 2A-M includes images and graphs illustrating NT deficiency reduces intestinal lipid absorption. A. (left panel) Fecal triglyceride (TG) was analyzed in male mice fed a high-fat diet (HFD) for 24 wks (n=3); * p=0.05 vs NT^+/+ mice; (right panel) Fecal weight was measured in male NT^+/+ and NT^−/− mice (n=7-9) fed either normal chow (NC) or HFD for 24 wks; there was no significant difference between genotypes. B. Oil red O (ORO) staining of proximal intestines from male mice (6-mo-old) under normal chow fed with or without olive oil by gavage after overnight fasting (n=3). C. Levels of ^13C18-oleic acid (OA) in male mice (5-mo-old) under normal chow fed with ^13C18-OA mixed in olive oil by gavage after an overnight fast was analyzed by nanospray FT-MS (n=3-4). Left panel, * p<0.05 vs. NT^+/+ mice. […] D. ORO staining of proximal intestines from male mice (5-mo-old) following gavage with or without olive oil plus NT after an overnight fast (left panel); TG was quantified (right panel) (n=5). * p<0.05 vs. Saline in NT^+/+ and NT^−/− mice, respectively; † p<0.05 vs. olive oil in NT^−/− mice; ‡ p<0.05 vs. olive oil in NT^+/+ mice. […] Densitometric quantification of p-AMPK was normalized to total AMPK and is presented as fold change vs. p-AMPK in NT^+/+ (right panel, n=9). * p<0.05 vs. NT^+/+. F. Protein extracts from mucosal scrapings of samples were analyzed by western blotting (left panel). […]

[4] = tested on: C57BL/6 mice; assay: Acute SR 48692 treatment: proximal intestinal TG content after olive oil gavage; format: in vivo; conditions: 2.5 mg/kg ip 30 min before olive oil gavage
From the text: (§1) FIGS. 13A-D show graphs and images illustrating that NT promotes intestinal cell lipid absorption or accumulation, while NT deficiency reduces intestinal lipid absorption A. Proximal intestines from mice given saline, olive oil, or olive oil+SR 48692 were collected and TG levels quantified as described above (n=8). Graph presents the fold change vs. control mice. * p<0.05 vs. control mice; † p<0.05 vs. mice with olive oil only. B. Male NT^+/+ and NT^−/− mice (n=4) on normal chow were fasted overnight. Mice were injected with either saline or SR 48692 (2.5 mg/kg, i.p). Thirty min after the injection, mice were given olive oil (10 μl/g) by oral gavage and then sacrificed. The proximal small bowel was excised and TG content measured. *p<0.05 vs. saline in NT^+/+ and NT^−/− mice; † p<0.05 vs. olive oil only in NT^+/+ mice; ‡ p<0.05 vs. olive oil only in NT^+/+ mice. C. Weekly body weight was measured in male wild type C57BL/6 mice fed HFD and treated with SR 48692 (2.5 mg/kg diluted in diH2O and administered by oral gavage twice a day) or vehicle (vehicle n=12; SR 48692 n=13). BW slopes were compared: * p<0.05 vehicle vs. SR treatment. D. Weekly food intake was measured in male wild type C57BL/6 mice (n=12-13) fed HFD and chronically treated with either SR 48692 or vehicle. […] All data are mean+/−SD. […]

[5] = tested on: NT^+/+ and NT^−/− mice; assay: Acute SR 48692 treatment repeated in NT+/+ and NT-/- mice: proximal intestinal TG; format: in vivo; conditions: 2.5 mg/kg ip 30 min before olive oil
From the text: as §1

[6] = tested on: C57BL/6 mice; assay: Chronic SR 48692 treatment of HFD-fed mice: body weight and food intake; format: in vivo; conditions: wild type mice fed HFD
From the text: FIGS. 13A-D show graphs and images illustrating that NT promotes intestinal cell lipid absorption or accumulation, while NT deficiency reduces intestinal lipid absorption A. Proximal intestines from mice given saline, olive oil, or olive oil+SR 48692 were collected and TG levels quantified as described above (n=8). Graph presents the fold change vs. control mice. * p<0.05 vs. control mice; † p<0.05 vs. mice with olive oil only. B. Male NT^+/+ and NT^−/− mice (n=4) on normal chow were fasted overnight. Mice were injected with either saline or SR 48692 (2.5 mg/kg, i.p). Thirty min after the injection, mice were given olive oil (10 μl/g) by oral gavage and then sacrificed. The proximal small bowel was excised and TG content measured. *p<0.05 vs. saline in NT^+/+ and NT^−/− mice; † p<0.05 vs. olive oil only in NT^+/+ mice; ‡ p<0.05 vs. olive oil only in NT^+/+ mice. C. Weekly body weight was measured in male wild type C57BL/6 mice fed HFD and treated with SR 48692 (2.5 mg/kg diluted in diH2O and administered by oral gavage twice a day) or vehicle (vehicle n=12; SR 48692 n=13). […] D. Weekly food intake was measured in male wild type C57BL/6 mice (n=12-13) fed HFD and chronically treated with either SR 48692 or vehicle. […]
All procedures were approved by the Institutional Animal Care and Use Committee of the University of Kentucky. […] Body weight and food intake were measured weekly. […]

[7] = tested on: AMPK; assay: Western blot of p-AMPK in FHs 74 Int cells; format: cell-based, human; conditions: FHs 74 Int cells treated with oleate 1 h
Method: (§2) G. Human small intestinal cells (FHs74Int) (left panel) and RIE-1 cells (right panel) were treated with the indicated concentrations of oleate for 1 h and lysates were analyzed by western blotting. […] All data are mean+/−SD. Experiments in vitro were at least repeated three times.
(§3) Tissues and cells were lysed with lysis buffer (Cell Signaling Technology), and equal amounts of protein were resolved on 4-12% NuPAGE BisTris gels (Life Technologies) and electrophoretically transferred to polyvinylidene difluoride (PVDF) membranes; the membranes were incubated with primary antibodies overnight at 4° C. followed by secondary antibodies conjugated with horseradish peroxidase. Membranes were developed using chemiluminescence (ECL) Western Blotting System from GE Healthcare Life Science (Piscataway, N.J.) and Thermo Scientific (Waltham, Mass.).

[8] = tested on: AMPK; assay: Western blot of p-AMPK in RIE-1 cells; format: cell-based, rat; conditions: RIE-1 cells treated with oleate 1 h
Method: as §2
All data are mean+/−SD. Experiments were repeated at least three times.
as §3

Question: `CCCCCCCCCCCCCC(=O)O[C@@H]1[C@@H](C)[C@@]2(O)[C@@H](C=C(CO)C[C@]3(O)C(=O)C(C)=C[C@@H]23)[C@@H]2C(C)(C)[C@]12OC(C)=O` [phorbol myristate acetate] was tested. Which NT release [1] did it give?
Answer: Its NT release is “stimulated NT release”.

Question: How did the “effect of AICAR on p-S6K1 and p-ERK1/2” value [2] turn out when `c1cc(-c2cnn3cc(-c4ccc(OCCN5CCCCC5)cc4)cnc23)ccn1` [compound C] was run?
Answer: Its value is “attenuated this effect”.

Question: `COc1cccc(OC)c1-c1cc(C(=O)NC2(C(=O)O)C3CC4CC(C3)CC2C4)nn1-c1ccnc2cc(Cl)ccc12` (stereo not shown) [SR 48692] was tested. Which “p-AMPK expression in proximal intestine” value [3] did it give?
Answer: Its value is “restored the p-AMPK expression to control levels”.

Question: And the “intestinal FA absorption following olive oil gavage (proximal intestine TG)” value [4]?
Answer: Its value is “decreased intestinal FA absorption”.

Question: And the “lipid absorption after olive oil administration” value ([5]; NT-/- mice)?
Answer: Its value is “did not further decrease lipid absorption”.

Question: What about the “intestinal FA absorption (as measured by TG accumulation)” value ([5]; wild type (NT+/+) mice) of the same molecule?
Answer: The value was “inhibited intestinal FA absorption”.

Question: And the body weight gain ([6]; 2.5 mg/kg oral gavage twice a day for 13 weeks)?
Answer: Its body weight gain is “significantly attenuated body weight gain”.

Question: And the “food intake (cumulative and weekly)” value ([6]; 2.5 mg/kg oral gavage twice a day, 2.5 mg/kg)?
Answer: Its value is “without altering food intake; also recorded: did not show a significant difference”.

Question: Which p-AMPK [7] does the source give for `CCCCCCCC/C=C\CCCCCCCC(=O)[O-].[Na+]` [oleate, Oleate sodium] here?
Answer: Its p-AMPK is “led to an increase in p-AMPK”.

Question: What about the p-AMPK [8] of the same molecule?
Answer: The p-AMPK was “led to an increase in p-AMPK”.
